Measured values: patent publication US20080182899A1, “ASSOCIATION OF BETA3 RECEPTOR AGONIST AND MONOAMINE REUPTAKE INHIBITORS, PHARMACEUTICAL COMPOSITION AND THERAPEUTIC USE THEREOF” (SANOFI-AVENTIS, priority 2005, published 2008)

Test system: mice stressed by MCS
Test: forced swimming test after moderate chronic stress (MCS) protocol
Format: in vivo, mice (male BALB/c ByJIco)
Conditions: β3 agonist 1 mg/kg; for Percentage of time (immobile time of stressed animals relative to the unstressed animals): forced swimming test on day 50, 1 intraperitoneal injection per day from day 15 to day 50, fluoxetine hydrochloride 3 mg/kg; for Immobile time: forced swimming test on day 50, measured over 5 minutes, 1 intraperitoneal injection per day from day 15 to day 50, fluoxetine hydrochloride 3 mg/kg; for effect of repeated administration on immobile time (in words): forced swimming test on day 50, repeated intraperitoneal administration day 15 to day 50, fluoxetine 3 mg/kg
Method: The antidepressant effects of the combination according to the invention were evaluated in mice using the moderate chronic stress (MCS) protocol. This test was developed on rats by Willner (P. Willner, Neuroscience and Biobehavioral Review, 1992, 16, 525-34) and adapted to mice by Kopp et al. (C. Kopp, Behavioral Pharmacology, 1999, 10, 73-83).
Similarities between the depressive state in man and the effect of moderate chronic stress in mice were established. The emotivity of mice stressed by MCS was evaluated in the forced swimming test.
The MCS is performed in the following manner:
Male BALB/c ByJIco mice (Iffa Credo Lyons, France) 8 weeks old are placed in individual experiment cages (26×20×14 cm), provided with food and water ad libitum, at a controlled temperature of 22±1° C.
In the context of the protocol, the mice are subjected to a series of stresses such as forced bathing, food and/or water deprivation, housing in cages containing wet sawdust, permutation of the day/night cycle, maintenance under constant illumination or in darkness, each of these restrictions possibly lasting from 2 hours to 24 hours.
A first group of control animals is not subjected to the MCS (group 1—unstressed).
The animals subjected to the MCS are divided into 4 groups on day 15: • Group 2 (saline stress) consists of control animals receiving one intraperitoneal injection per day of physiological fluid. • Group 3 (fluoxetine stress) receives 1 intraperitoneal injection per day of fluoxetine hydrochloride at a rate of 3 mg/kg. • Group 4 (β3 agonist stress) receives 1 intraperitoneal injection per day of ethyl [(7S)-7(2R)-2-(3-chlorophenyl)-2-hydroxyethylamino-5,6,7,8-tetrahydronaphthalen-2-yloxy]acetate hydrochloride at a rate of 1 mg/kg. • Group 5 (fluoxetine+β3 agonist stress) receives 1 intraperitoneal injection per day of a solution containing fluoxetine hydrochloride (3 mg/kg) and ethyl [(7S)-7(2R)-2-(3-chlorophenyl)-2-hydroxyethylamino-5,6,7,8-tetrahydro-naphthalen-2-yloxy]acetate hydrochloride (1 mg/kg).
The injections are performed from day 15 to day 50.
On day 50, each group is subjected to the forced swimming test. […] The immobile time is measured over a period of 5 minutes.

| SMILES | Percentage of time (immobile time of stressed animals relative to the unstressed animals) | Immobile time [s] | effect of repeated administration on immobile time (in words) |
| --- | --- | --- | --- |
| CCOC(=O)COc1ccc2c(c1)C[C@@H](NC[C@H](O)c1cccc(Cl)c1)CC2.Cl [β3 agonist, ethyl [(7S)-7(2R)-2-(3-chlorophenyl)-2-hydroxyethylamino-5,6,7,8-tetrahydronaphthalen-2-yloxy]acetate hydrochloride] | +25.1% | 182.0 | does not significantly modify this parameter |
| CNCCC(Oc1ccc(C(F)(F)F)cc1)c1ccccc1 (stereo not drawn) [fluoxetine] | +21.5% | 178.4 | does not significantly modify this parameter |
